From patent publication US10774074B2, “2-(1-heteroarylpiperazin-4-yl)methyl-1,4-benzodioxane derivatives as alpha2C antagonists” (ORION CORPORATION, priority 2015, dated 2020)
pIC50: −log10 of the molar value. Where a name gives a salt, the structure may show the parent alone.

What was measured:
human alpha2A receptors = molecular target: T1, human alpha2A receptors (Homo sapiens, UniProt P08913); test: Determination of alpha2A antagonistic activity in vitro (FLIPR calcium assay, CHO cells); format: cell-based; conditions: for Kb: Kb calculated with the Cheng-Prusoff equation from IC50, adrenaline as agonist, CHO cells, human alpha2A, read-out: Alpha 2A Adrenaline Kb; for pIC50: antagonism of adrenaline stimulation, CHO cells stably transfected with human alpha2A receptor and Gα16, intracellular calcium (FLIPR), read-out: Alpha 2A Adrenaline IC50
T1 construct: host or cells: CHO cells, cotransfected with pCEP-Gα16
T1 sequence (P08913 1-465): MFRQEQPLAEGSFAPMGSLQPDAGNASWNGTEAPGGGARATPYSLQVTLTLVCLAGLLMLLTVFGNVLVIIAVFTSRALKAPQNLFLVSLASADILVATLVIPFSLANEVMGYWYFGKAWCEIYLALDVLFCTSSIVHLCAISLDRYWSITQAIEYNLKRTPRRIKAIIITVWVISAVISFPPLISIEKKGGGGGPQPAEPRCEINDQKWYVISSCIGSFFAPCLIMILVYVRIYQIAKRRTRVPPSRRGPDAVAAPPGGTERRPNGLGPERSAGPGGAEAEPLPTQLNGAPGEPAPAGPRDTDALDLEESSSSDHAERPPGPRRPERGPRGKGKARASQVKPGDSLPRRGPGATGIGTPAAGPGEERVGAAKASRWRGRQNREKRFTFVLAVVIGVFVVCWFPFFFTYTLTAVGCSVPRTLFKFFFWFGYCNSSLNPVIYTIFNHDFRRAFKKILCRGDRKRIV
Experimental: (§1) EXPERIMENT 1: Determination of alpha2A and alpha2C Antagonistic Activity In Vitro
(§2) Chinese hamster ovary (CHO) cells stably transfected with human alpha2A or alpha2C receptors (University of Turku, Finland) were cotransfected with the expression vector pCEP-Gα16 (Molecular Devices, CA, USA) were used in this experiment. The cells were maintained at 37° C. in a 5% CO2/95% air atmosphere. The cells were cultured in HAM F-12 medium supplemented with 10% FCS, 25 mM HEPES, 100 IU/ml penicillin, 100 µg/ml streptomycin, 500 μg/ml geneticin and 240 μg/ml hygromycin B. The cells were subcultured twice weekly with 0.25% trypsin and 1 mM EDTA. The subculture ratio was 1:5-1:20. The growth medium was changed every 2 or 3 days. All cell culture reagents were from Gibco. The day before the experiment the cells were plated into black-walled, clear bottom 384-well plates at a density of 10,000 cells/well.
(§3) The growth medium was removed and the cells were incubated with the test compounds and the FLIPR Calcium 6 Assay reagent (Molecular Devices, CA, USA) for 2 h at 37° C. in dark. The test compounds (concentrations in cells 100 pM-10 μM) were dissolved in Probenecid-Ringer consisting of 150 mM NaCl, 3 mM KCl, 1.2 mM MgCl2, 1 mM CaCl2, 5 mM glucose, 20 mM HEPES and 2.5 mM probenecid (pH 7.4 adjusted with 1.0 M NaOH). The osmolarity was adjusted to 322 milliosmoles with Osmostat® OM-6020 osmometer (DIC Kyoto Daiichi Kagagu Co. Ltd, Japan). […] All experiments were performed at 37° C. For agonism measurements the test compounds dissolved in Probenecid-Ringer were applied by FLIPR Tetra at 15 s time point. In order to determine antagonism, the cells were stimulated either with 100 nM adrenaline or noradrenaline and the test compounds were added to the cells 2 h before the experiment with the FLIPR Calcium 6 Assay reagent. […] Typically, there were four replicates at each concentration and six different dose levels. For example, if the number of plates from which results were obtained was three, 72 (4*6*3) wells were thus measured to construct dose-response relationship. The samples were excited at 485 nm and emission was detected at 525 nm with a 515 nm cut-off filter. The minimum fluorescence value subtracted from the maximum value for each well was used in the calculations. ScreenWorks version 4.0 software was used for analyzing the results. Fitting of the antagonist dose-response results was performed with the free Hill equation and the IC50 values were fitted with IDBS XE software using model 200: y=(A+(B/(1+((x/C)^D)))), where A is the curve maximum, B the curve minimum and C equals the EC50 value. D is slope factor (Hill). Kb was calculated with the Cheng-Prusoff equation Kb=A/((B/C)+1), where A is the IC50 of antagonist, B the concentration of agonist and C the EC50 of the agonist.

human alpha2C receptors = molecular target: T2, human alpha2C receptors (Homo sapiens, UniProt P18825); test: Determination of alpha2C antagonistic activity in vitro (FLIPR calcium assay, CHO cells); format: cell-based; conditions: for Kb: Kb calculated with the Cheng-Prusoff equation from IC50, adrenaline as agonist, CHO cells, human alpha2C, read-out: Alpha 2C Adrenaline Kb; for pIC50: antagonism of adrenaline stimulation, CHO cells stably transfected with human alpha2C receptor and Gα16, intracellular calcium (FLIPR), read-out: Alpha 2C Adrenaline IC50
T2 construct: host or cells: CHO cells, cotransfected with pCEP-Gα16
T2 sequence (P18825 1-462): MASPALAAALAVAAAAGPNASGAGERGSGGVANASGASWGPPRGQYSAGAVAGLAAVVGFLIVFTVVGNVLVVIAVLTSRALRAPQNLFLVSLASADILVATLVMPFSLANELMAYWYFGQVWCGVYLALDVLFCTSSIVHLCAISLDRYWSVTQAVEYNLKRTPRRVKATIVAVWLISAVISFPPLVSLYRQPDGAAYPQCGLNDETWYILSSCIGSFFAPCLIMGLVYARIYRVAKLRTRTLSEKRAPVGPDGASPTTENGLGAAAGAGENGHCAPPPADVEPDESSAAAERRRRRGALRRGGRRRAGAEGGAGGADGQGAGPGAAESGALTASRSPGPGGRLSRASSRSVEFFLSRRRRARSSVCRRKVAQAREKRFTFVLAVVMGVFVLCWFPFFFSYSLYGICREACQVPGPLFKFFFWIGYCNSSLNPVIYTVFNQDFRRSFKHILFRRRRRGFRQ
Experimental: as §1, §2, §3

| SMILES | Kb (human alpha2A receptors) [nM] | pIC50 (human alpha2A receptors) | Kb (human alpha2C receptors) [nM] | pIC50 (human alpha2C receptors) |
| --- | --- | --- | --- | --- |
| CC(=O)Nc1nsnc1N1CCN(C[C@H]2COc3ccccc3O2)CC1 [Compound of example 16, (S)—N-(4-(4-((2,3-Dihydrobenzo[b][1,4]dioxin-2-yl)methyl)piperazin-1-yl)-1,2,5-thiadiazol-3-yl)acetamide] | > 449 | < 5.00 | 4210 | 6.37 |
| CC1(C)CCN(c2nsnc2N2CCN(C[C@H]3COc4ccccc4O3)CC2)C1=O [Compound of example 17, (S)-1-(4-(4-((2,3-Dihydrobenzo[b][1,4]dioxin-2-yl)methyl)piperazin-1-yl)-1,2,5-thiadiazol-3-yl)-3,3-dimethylpyrrolidin-2-one] | > 449 | < 5.00 | < 0.1 | > 11.00 |
| c1cnc(Nc2nsnc2N2CCN(C[C@H]3COc4ccccc4O3)CC2)nc1 [Compound of example 18, (S)-4-(4-((2,3-Dihydrobenzo[b][1,4]dioxin-2-yl)methyl)piperazin-1-yl)-N-(pyrimidin-2-yl)-1,2,5-thiadiazol-3-amine] | 233 | 5.28 | 30.1 | 8.52 |
| c1ccc2c(c1)OC[C@H](CN1CCN(c3nsnc3Nc3ccncn3)CC1)O2 [Compound of example 19, (S)-4-(4-((2,3-Dihydrobenzo[b][1,4]dioxin-2-yl)methyl)piperazin-1-yl)-N-(pyrimidin-4-yl)-1,2,5-thiadiazol-3-amine] | 459 | 4.99 | < 0.1 | > 11.00 |
| O=C1CCCN1c1ncsc1N1CCN(C[C@H]2COc3ccccc3O2)CC1 [Compound of example 20, (S)-1-(5-(4-((2,3-Dihydrobenzo[b][1,4]dioxin-2-yl)methyl)piperazin-1-yl)thiazol-4-yl)pyrrolidin-2-one] | 405 | 5.04 | 0.394 | 10.40 |
| CC1CCN(c2nsnc2N2CCN(C[C@H]3COc4ccccc4O3)CC2)C1=O (stereo partly drawn) [Compound of example 21, 1-(4-(4-(((S)-2,3-Dihydrobenzo[b][1,4]dioxin-2-yl)methyl)piperazin-1-yl)-1,2,5-thiadiazol-3-yl)-3-methylpyrrolidin-2-one] | > 449 | < 5.00 | 0.38 | 10.40 |
| c1ccc2c(c1)OC[C@H](CN1CCN(c3nncs3)CC1)O2 [Compound of example 22, (S)-2-(4-((2,3-Dihydrobenzo[b][1,4]dioxin-2-yl)methyl)piperazin-1-yl)-1,3,4-thiadiazole] | > 449 | < 5.00 | 1570 | 6.80 |
| COCc1nc(N2CCN(C[C@H]3COc4ccccc4O3)CC2)no1 [Compound of example 23, (S)-3-(4-((2,3-Dihydrobenzo[b][1,4]dioxin-2-yl)methyl)piperazin-1-yl)-5-(methoxymethyl)-1,2,4-oxadiazole] | > 449 | < 5.00 | 1350 | 6.87 |
| O=C1CCCN1c1nsnc1N1CCN(C[C@H]2COc3ccccc3O2)CC1 [Compound of example 24, (S)-1-(4-(4-((2,3-Dihydrobenzo[b][1,4]dioxin-2-yl)methyl)piperazin-1-yl)-1,2,5-thiadiazol-3-yl)pyrrolidin-2-one] | 385 | 5.07 | 0.546 | 10.26 |
| O=C1NCCN1c1nnc(N2CCN(C[C@H]3COc4ccccc4O3)CC2)s1 [Compound of example 25, (S)-1-(5-(4-((2,3-Dihydrobenzo[b][1,4]dioxin-2-yl)methyl)piperazin-1-yl)-1,3,4-thiadiazol-2-yl)imidazolidin-2-one] | 514 | 4.94 | 28.4 | 8.54 |
| O=C1OCCN1c1nsnc1N1CCN(C[C@H]2COc3ccccc3O2)CC1 [Compound of example 26, (S)-3-(4-(4-((2,3-Dihydrobenzo[b][1,4]dioxin-2-yl)methyl)piperazin-1-yl)-1,2,5-thiadiazol-3-yl)oxazolidin-2-one] | > 449 | < 5.00 | 183 | 7.73 |
| NC(=O)c1nsnc1N1CCN(C[C@H]2COc3ccccc3O2)CC1 [Compound of example 27, (S)-4-(4-((2,3-Dihydrobenzo[b][1,4]dioxin-2-yl)methyl)piperazin-1-yl)-1,2,5-thiadiazole-3-carboxamide] | > 449 | < 5.00 | 1650 | 6.78 |
| CN1CCN(c2nsnc2N2CCN(C[C@H]3COc4ccccc4O3)CC2)C1=O [Compound of example 28, (S)-1-(4-(4-((2,3-Dihydrobenzo[b][1,4]dioxin-2-yl)methyl)piperazin-1-yl)-1,2,5-thiadiazol-3-yl)-3-methylimidazolidin-2-one] | > 449 | < 5.00 | 1070 | 6.97 |
| CNC(=O)c1nsnc1N1CCN(C[C@H]2COc3ccccc3O2)CC1 [Compound of example 29, (S)-4-(4-((2,3-Dihydrobenzo[b][1,4]dioxin-2-yl)methyl)piperazin-1-yl)-N-methyl-1,2,5-thiadiazole-3-carboxamide hydrochloride] | > 449 | < 5.00 | 4210 | 6.37 |
| O=C1NCCN1c1nsnc1N1CCN(C[C@H]2COc3ccccc3O2)CC1 [Compound of example 30, (S)-1-(4-(4-((2,3-Dihydrobenzo[b][1,4]dioxin-2-yl)methyl)piperazin-1-yl)-1,2,5-thiadiazol-3-yl)imidazolidin-2-one] | > 449 | < 5.00 | 0.527 | 10.27 |
| Cc1nsc(N2CCN(C[C@H]3COc4ccccc4O3)CC2)c1N1CCCC1=O [Compound of example 31, (S)-1-(5-(4-((2,3-Dihydrobenzo[b][1,4]dioxin-2-yl)methyl)piperazin-1-yl)-3-methylisothiazol-4-yl)pyrrolidin-2-one] | > 449 | < 5.00 | 1.66 | 9.77 |
| CC(=O)c1nsnc1N1CCN(C[C@H]2COc3ccccc3O2)CC1 [Compound of example 33, (S)-1-(4-(4-((2,3-Dihydrobenzo[b][1,4]dioxin-2-yl)methyl)piperazin-1-yl)-1,2,5-thiadiazol-3-yl)ethanone] | > 449 | < 5.00 | 401 | 7.39 |
